Patent US20180008587A1, “THIOHYDANTOIN ANDROGEN RECEPTOR ANTAGONISTS FOR THE TREATMENT OF CANCER” (Jaressen Pharmaceutica NV, priority 2016, published 2018)

Key:
AR-VP16 = target: T1, AR-VP16 (Homo sapiens, UniProt P10275); experiment: AR-VP16 DNA binding assay, HepG2; format: cell-based; conditions: HepG2, antagonist mode, 90 pM R1881, 48 hours; read-out: IC50 VP16 WT
T1 sequence (P10275 560-920 limits assumed): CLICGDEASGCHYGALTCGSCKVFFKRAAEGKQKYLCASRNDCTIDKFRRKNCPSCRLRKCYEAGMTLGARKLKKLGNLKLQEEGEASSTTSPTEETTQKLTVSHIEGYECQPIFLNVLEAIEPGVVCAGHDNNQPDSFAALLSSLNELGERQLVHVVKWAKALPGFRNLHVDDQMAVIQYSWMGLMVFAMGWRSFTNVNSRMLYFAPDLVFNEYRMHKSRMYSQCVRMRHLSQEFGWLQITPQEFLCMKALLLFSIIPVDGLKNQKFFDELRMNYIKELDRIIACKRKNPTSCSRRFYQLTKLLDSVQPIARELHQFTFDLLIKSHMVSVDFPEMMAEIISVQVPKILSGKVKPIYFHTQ
Protocol: (§1) HepG2 cells were maintained in EMEM supplemented with 10% FBS. One day before transfection, the media was changed to EMEM with 10% CSS. […] Cells were then trypsinized, counted and resuspended at 500,000 cells/mL. For agonist mode, the compounds were serially diluted and 50 μL of the compound was added per well. 50 μL of the cells were added to each well and incubated for 48 hours. For antagonist mode, a final concentration of 90 pM (VP16 AR) or 1 nM (VP16 F876L) R1881 was added to the plate and incubated for 48 hours. The plates were then assayed using SteadyGlo and read on the Envision. Percent Stimulation and Inhibition were determined and analyzed using GraphPad Prism.

F876L-VP16 = target: T2, F876L-VP16 (Homo sapiens, UniProt P10275, F877L); experiment: AR-VP16 DNA binding assay, HepG2; format: cell-based; conditions: HepG2, antagonist mode, 1 nM R1881, 48 hours
T2 construct: VP16 (fusion partner); expressed in transfected cells; host or cells: HepG2
T2 sequence (P10275 1-920 F877L): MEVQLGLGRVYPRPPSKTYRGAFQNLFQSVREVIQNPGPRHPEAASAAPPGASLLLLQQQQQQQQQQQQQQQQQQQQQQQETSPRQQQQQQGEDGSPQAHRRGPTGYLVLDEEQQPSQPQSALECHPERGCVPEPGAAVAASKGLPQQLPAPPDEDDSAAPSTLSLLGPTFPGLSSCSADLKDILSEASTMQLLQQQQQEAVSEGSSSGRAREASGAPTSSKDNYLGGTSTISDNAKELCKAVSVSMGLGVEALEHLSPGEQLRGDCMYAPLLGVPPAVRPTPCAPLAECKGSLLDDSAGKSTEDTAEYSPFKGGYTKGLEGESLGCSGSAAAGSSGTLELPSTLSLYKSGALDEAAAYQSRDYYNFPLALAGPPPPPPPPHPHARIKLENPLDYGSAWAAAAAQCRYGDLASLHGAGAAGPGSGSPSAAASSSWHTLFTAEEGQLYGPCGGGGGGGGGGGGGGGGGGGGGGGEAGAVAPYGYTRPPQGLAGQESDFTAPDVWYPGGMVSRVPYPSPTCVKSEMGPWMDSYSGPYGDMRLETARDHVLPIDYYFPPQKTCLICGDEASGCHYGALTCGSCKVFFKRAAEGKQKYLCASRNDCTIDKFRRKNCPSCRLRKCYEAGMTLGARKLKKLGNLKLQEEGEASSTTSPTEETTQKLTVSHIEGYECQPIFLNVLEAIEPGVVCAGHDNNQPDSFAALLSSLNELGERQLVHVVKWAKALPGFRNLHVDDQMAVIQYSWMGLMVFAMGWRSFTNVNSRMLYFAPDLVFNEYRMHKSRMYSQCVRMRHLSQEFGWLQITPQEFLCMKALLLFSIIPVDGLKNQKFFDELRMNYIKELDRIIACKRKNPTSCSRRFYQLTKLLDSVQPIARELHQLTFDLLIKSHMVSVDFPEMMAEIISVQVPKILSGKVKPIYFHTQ
Protocol: as §1

| IC50 (AR-VP16) [nM] | IC50 (F876L-VP16) [nM] | SMILES |
| --- | --- | --- |
| 3390 | 2740 | N#Cc1ncc(N2C(=O)C3(CCC3)N(c3ccc(OC4CCNCC4)cc3)C2=S)cc1C(F)(F)F [Cpd 35, 5-[5-oxo-8-[4-(4-piperidyloxy)phenyl]-7-thioxo-6,8-diazaspiro[3.4]octan-6-yl]-3-(trifluoromethyl)pyridine-2-carbonitrile] |
| 24 | 994 | N#Cc1ncc(N2C(=O)C3(CCC3)N(c3ccc(C(=O)NCCCO)c(F)c3)C2=S)cc1C(F)(F)F [Cpd 40, 4-[6-[6-cyano-5-(trifluoromethyl)-3-pyridyl]-5-oxo-7-thioxo-6,8-diazaspiro[3.4]octan-8-yl]-2-fluoro-N-(3-hydroxypropyl)benzamide] |
